Source: patent US11434241B2, “Pyrimidine derivatives for prevention and treatment of bacterial infections” (UNIVERSITE DE LIEGE, priority 2018, dated 2022)
In brackets after ≈: the same amount, converted by molar mass. Read-outs that look alike come from different tables or passages of the source.

Assays:
Assay type in all cases: cell-based
S. aureus ATCC 25904 = test: MIC determination on S. aureus ATCC 25904; settings: Staphylococcus aureus, ATCC25904, read-out: MIC S. aureus ATCC25904
Protocol: (§1) Further experiments are conducted using different strains of S. aureus, as clinically relevant Gram-positive bacterial strains: S. aureus ATCC 25904, methicillin-resistant S. aureus (MRSA) ATCC BAA-1556, Glycopeptide intermediate-resistant (GISA) S. aureus Mu-50 (ATCC 700695) in order to determine the Minimal Inhibitory Concentration (MIC) which is the minimal concentration required to prevent bacterial growth. The bioluminescent strain S. aureus Xen29 (ATCC 12600) was also used. This strain is derived from the parental strain S. aureus ATCC 12600, a pleural fluid isolate, which is also designated as NCTC8532.
(§2) A single colony selected from the different strains of S. aureus is resuspended and cultured in brain heart infusion (BHI) broth overnight (O/N) in aerobic conditions (37° C. with 220 rpm shaking), next day a 1:100 inoculum in Mueller-Hinton broth (MHB) is incubated in aerobic conditions for 3 hr (=OD0.08-0.1) and an inoculum of 1:300 dilution, corresponding to 3×10^5 CFU/ml, is incubated in presence or absence of different concentrations of the tested molecules in 1% DMSO. After O/N growth the OD of each culture was measured at 600 nm (OD600) in a spectrophotometer (Victor 3-Perkin Elmer). The MIC represents the concentration at which there is no visible growth of bacteria, i.e. ΔOD at 600 nm equal to zero (blank is the medium alone). […] The MIC of molecule 2329 against Glycopeptide intermediate-resistant (GISA) S. aureus Mu-50 (ATCC 700695) is in between 25 and 30 μM, while it is above 50 μM for molecules 2348, 2412, and 2452.

[1] = tested on: Staphylococcus epidermidis (ATCC 35984, also known as RP62A or MRSE); test: MIC determination on S. epidermidis (EUCAST, OD600 after overnight growth in MHB)
Protocol: The Minimal Inhibitory Concentration (MIC) of molecules 2329, 2348, 2412, 2452 and 2461 was determined on Staphylococcus epidermidis (ATCC 35984, also known as RP62A) according to EUCAST (European Committee on Antimicrobial Susceptibility Testing) recommendations.
Briefly, a single colony grown on a Tryptic Soy Agar (TSA) plate was resuspended and cultured in Tryptic Soy Broth (TSB) overnight (O/N) in aerobic conditions (37° C. with 220 rpm shaking), next day a 1:50 inoculum in Mueller-Hinton broth (MHB) was incubated in aerobic conditions for 3 hr and an inoculum of 1:100 dilution, corresponding to 3×10^5 CFU/ml, was incubated in presence or absence of different concentrations of the molecules in 1% DMSO (vehicle). After O/N growth the OD of each culture was measured at 600 nm in a spectrophotometer (OD600). The MIC represents the concentration at which there is no visible growth of bacteria, i.e. ΔOD at 600 nm equal to zero (blank is the medium alone).
The Minimal Inhibitory Concentration (MIC) of pyrazolopyrimidine molecules 2539, 2544, 2666,2676, 2693, 2783, 2784 and 2782 and of purine molecules 2498, 2511, 2525, 2527, 2833, and 2840 was determined on S. epidermidis (ATCC 35984, also known as RP62A or MRSE) according to EUCAST (European Committee on Antimicrobial Susceptibility Testing) recommendations.
Briefly, a single colony grown on an agar plate was resuspended and cultured in Triptic Soy Broth (TSB) medium overnight (O/N) in aerobic conditions (37° C. with 220 rpm shaking), next day a 1:50 inoculum in Mueller-Hinton broth (MHB) was incubated in aerobic conditions for 3 hr (OD=0.08-0.1) and an inoculum of 1:300 dilution, corresponding to 3×10^5 CFU/ml, was incubated in presence or absence of different concentrations of each of the molecules in 1% DMSO (vehicle). After O/N growth the OD of each culture was measured at 600 nm (600) in a spectrophotometer (Victor 3-Perkin Elmer). The MIC represents the concentration at which there is no visible growth of bacteria, i.e. ΔOD at 600 nm equal to zero (where ΔOD is the difference between the OD with the molecule and the OD of the blank, the medium alone).
Molecule 36z has been tested for its potential antibacterial activity by determining its minimal inhibitory concentration (MIC) according to protocols recommended by EUCAST to assess the efficacy of antibiotics against bacterial strains. In brief MIC in MRSA (ATCC BAA-1556) or in Xen29 (Perkin Elmer-ATCC 12600) for 36z (molecule 25 in WO2009/034386) was determined by culturing a single colony of MRSA or Xen29 in brain heart infusion (BHI) broth overnight (O/N) in aerobic conditions (37° C. with 220 rpm shaking), while MIC for MRSE (ATCC 35984) was determined by culturing MRSE in TSB O/N. Next day a 1:100 inoculum in Mueller-Hinton broth (MHB) is incubated in aerobic conditions for 3 hr (OD=0.08-0.1) and an inoculum of 1:300 dilution, corresponding to 3×10^5 CFU/ml, is incubated in presence or absence of different concentrations of the tested molecules in 1% DMSO. After O/N growth the OD of each culture was measured at 600 nm (OD600) in a spectrophotometer (Victor 3-Perkin Elmer). The MIC represents the concentration at which there is no visible growth of bacteria, i.e. ΔOD at 600 nm equal to zero (blank is the medium alone). No antibacterial activity was found against MRSA (ATCC BAA-1556), Xen29 (Perkin Elmer-ATCC 12600 or MRSE (ATCC 35984) strains when the molecule was used at concentrations up to 200 μM.

[2] = tested on: Glycopeptide intermediate-resistant (GISA) S. aureus Mu-50 (ATCC 700695); test: MIC determination on glycopeptide intermediate-resistant S. aureus; settings: Staphylococcus aureus, ATCC700695, read-out: MIC S. aureus GISA
Protocol: as §1, §2

[3] = Staphylococcus epidermidis, Mueller-Hinton broth (MHB), read-out: MIC S. epidermidis RP62

## C=CCn1cnc2c(N[C@@H]3C[C@H]3c3ccc(F)c(F)c3)nc(SCCC)nc21 [Molecule 2412, 9-allyl-N-((1R,2S)-2-(3,4-difluorophenyl)cyclopropyl)-2-(propylthio)-9H-purin-6-amine]
S. aureus ATCC 25904
  MIC: 20 to 25 µM (≈ 8.03 to 10 µg/mL)
[1]; [3]
  MIC: > 50 µM
[2]
  MIC: > 50 µM

## CCSc1nc(N[C@@H]2C[C@H]2c2ccc(F)c(F)c2)c2cnn(C)c2n1.Cl [Molecule 2666, N-((1R,2S)-2-(3,4-difluorophenyl)cyclopropyl)-6-(ethylthio)-1-methyl-1H-pyrazolo[3,4-d]pyrimidin-4-amine hydrochloride]
[1]; MHB medium
  antibacterial activity / inhibition of MRSE growth (in words): able to inhibit MRSE growth
[1]; Staphylococcus epidermidis, read-out: MIC MRSE
  MIC: 50 µM

## CCCSc1nc(N[C@@H]2C[C@H]2c2ccc(F)c(F)c2)c2ncn(CC)c2n1 [Molecule 2348, N-((1R,2S)-2-(3,4-difluorophenyl)cyclopropyl)-9-ethyl-2-(propylthio)-9H-purin-6-amine]
S. aureus ATCC 25904
  MIC: 20 to 25 µM (≈ 7.79 to 9.74 µg/mL)
[1]; [3]
  MIC: 20 µM (≈ 7.79 µg/mL)
[2]
  MIC: > 50 µM

## CCCSc1nc(N[C@@H]2C[C@H]2c2ccc(F)c(F)c2)c2ncn(C)c2n1 [Molecule 2329, N-((1R,2S)-2-(3,4-difluorophenyl)cyclopropyl)-9-methyl-2-(propylthio)-9H-purin-6-amine]
S. aureus ATCC 25904
  MIC: 20 to 25 µM (≈ 7.51 to 9.39 µg/mL)
[1]; [3]
  MIC: 20 µM (≈ 7.51 µg/mL)
[2]
  MIC: 25 to 30 µM (≈ 9.39 to 11.3 µg/mL)

## C#CCn1cnc2c(N[C@@H]3C[C@H]3c3ccc(F)c(F)c3)nc(SCCC)nc21 [Molecule 2452, N-((1R,2S)-2-(3,4-difluorophenyl)cyclopropyl)-9-(prop-2-yn-1-yl)-2-(propylthio)-9H-purin-6-amine]
S. aureus ATCC 25904
  MIC: 20 to 25 µM (≈ 7.99 to 9.99 µg/mL)
[1]; [3]
  MIC: > 50 µM
[2]
  MIC: > 50 µM

## CCn1cnc2c(N[C@@H]3C[C@H]3c3ccc(F)c(F)c3)nc(SC)nc21 [Molecule 2511, N-((1R,2S)-2-(3,4-difluorophenyl)cyclopropyl)-9-ethyl-2-(methylthio)-9H-purin-6-amine]
[1]; MHB medium
  antibacterial activity / inhibition of MRSE growth (in words): able to inhibit MRSE growth
[1]; MHB medium, tested up to 100 μM, read-out: MIC MRSE
  MIC: >100 µM
[1]; Staphylococcus epidermidis, MHB medium, tested up to 100 μM, read-out: MIC MRSE
  MIC: > 100 µM
